Laboratory results published in patent publication US5869494A, “Uses for barbituric acid analogs” (priority 1997, dated 1999).

Experiments:
Assay in all cases: NCI tumor cell line screen (SRB assay)
Format in all cases: cell-based
Set-up in all cases: activity: dose or concentration left out as unconfirmed
[1] = system: NCI-H226; details: Homo sapiens, read-out: PERCENT GROWTH
Procedure: (§1) The National Cancer Institute carried out the studies at the direction of the present inventor.
(§2) In the tests, the National Cancer Institute used the SRB (sulforhodamine B) assay as described by Skehan et al., (Journal of the National Cancer Institute, 82:13, Jul. 4, 1990, 1107-1112). Briefly, the assay is as follows. TCA-fixed cells were stained for 30 minutes with 0.4% (wt/vol) SRB dissolved in 1% acetic acid. At the end of the staining period, SRB was removed and cultures were quickly rinsed four times with 1% acetic acid to remove unbound dye. The acetic acid was poured directly into the culture wells from a beaker. […] Residual wash solution was removed by sharply flicking plates over a sink, which ensured the complete removal of rinsing solution. […] After being rinsed, the cultures were air dried until no standing moisture was visible. Bound dye was solubilized with 10 mM unbuffered Tris base (pH 10.5) for 5 minutes on a gyratory shaker.
(§3) Optical density (OD) was read in either a UVmax microtiter plate reader (Molecular Devices, Menlo Park, Calif.) or a Beckman DU-70 spectrophotometer. For maximum sensitivity, OD was measured at 564 nm. Because readings were linear with dye concentrations only below 1.8 OD units, however, suboptimal wavelengths were generally used, so that all samples in an experiment remained within the linear OD range. With most cell lines, wavelengths of approximately 490-530 nm worked well for this purpose.
(§4) Nine different non-small cell lung carcinoma cell lines, six different colon carcinoma cell lines, six different CNS (central nervous system) carcinoma cell lines, seven different melanoma cell lines, six different ovarian carcinoma cell lines, and eight different renal carcinoma cell lines were tested.

[2] = system: U251; details: Homo sapiens, U-251, read-out: PERCENT GROWTH
Procedure: as §1, §2, §3, §4

[3] = system: SN12C; details: Homo sapiens, read-out: PERCENT GROWTH
Procedure: as §1, §2, §3, §4

[4] = system: OVCAR-4; details: Homo sapiens, read-out: PERCENT GROWTH
Procedure: as §1, §2, §3, §4

[5] = system: SW-620; details: Homo sapiens, read-out: PERCENT GROWTH
Procedure: as §1, §2, §3, §4

[6] = system: HOP-62; details: Homo sapiens, read-out: PERCENT GROWTH
Procedure: as §1, §2, §3, §4

[7] = system: HCT-116; details: Homo sapiens, read-out: PERCENT GROWTH
Procedure: as §1, §2, §3, §4

[8] = system: SF-295; details: Homo sapiens, read-out: PERCENT GROWTH
Procedure: as §1, §2, §3, §4

[9] = system: HOP-92; details: Homo sapiens, read-out: PERCENT GROWTH
Procedure: as §1, §2, §3, §4

[10] = system: SF-539; details: Homo sapiens, read-out: PERCENT GROWTH
Procedure: as §1, §2, §3, §4

[11] = system: A498; details: Homo sapiens, read-out: PERCENT GROWTH
Procedure: as §1, §2, §3, §4

[12] = system: HCC-2998; details: Homo sapiens, read-out: PERCENT GROWTH
Procedure: as §1, §2, §3, §4

[13] = system: SK-MEL-28; details: Homo sapiens, read-out: PERCENT GROWTH
Procedure: as §1, §2, §3, §4

[14] = system: UACC-62; details: Homo sapiens, read-out: PERCENT GROWTH
Procedure: as §1, §2, §3, §4

[15] = system: NCI-H460; details: Homo sapiens, read-out: PERCENT GROWTH
Procedure: as §1, §2, §3, §4

[16] = system: 786-0; details: Homo sapiens, read-out: PERCENT GROWTH
Procedure: as §1, §2, §3, §4

[17] = system: NCI-H23; details: Homo sapiens, read-out: PERCENT GROWTH
Procedure: as §1, §2, §3, §4

[18] = system: SF-268; details: Homo sapiens, read-out: PERCENT GROWTH
Procedure: as §1, §2, §3, §4

`CCCCN1C(=O)CC(=O)N(CCCC)C1=S` [Compound C1, 4,6(1H, 5H)-pyrimidinedione, 1,3-dibutyldihydro-2-thioxo] showed an activity ([1]; 10^-3.0 Molar) of -39%, an activity at 100 µM ([1]; 10^-4.0 Molar) of 90% and an activity at 10 µM ([1]; 10^-5.0 Molar) of 106%. It also gave an activity at 1 µM ([1]; 10^-6.0 Molar) of 100%, an activity at 0.1 µM ([1]; 10^-7.0 Molar) of 96% and an activity ([2]; 10^-3.0 Molar) of -55%. For the same compound, the activity at 100 µM ([2]; 10^-4.0 Molar) was 54%, the activity at 10 µM ([2]; 10^-5.0 Molar) was 102% and the activity at 1 µM ([2]; 10^-6.0 Molar) was 111%. For the same compound, the activity at 0.1 µM ([2]; 10^-7.0 Molar) was 104%, the activity ([3]; 10^-3.0 Molar) was -42% and the activity at 100 µM ([3]; 10^-4.0 Molar) was 62%. The activity at 10 µM ([3]; 10^-5.0 Molar) was 89%, the activity at 1 µM ([3]; 10^-6.0 Molar) was 58% and the activity at 0.1 µM ([3]; 10^-7.0 Molar) was 90%. The activity ([4]; 10^-3.0 Molar) was -75%, the activity at 100 µM ([4]; 10^-4.0 Molar) was 66% and the activity at 10 µM ([4]; 10^-5.0 Molar) was 105%. It also gave an activity at 1 µM ([4]; 10^-6.0 Molar) of 104%, an activity at 0.1 µM ([4]; 10^-7.0 Molar) of 101% and an activity ([5]; 10^-3.0 Molar) of -39%. For the same compound, the activity at 100 µM ([5]; 10^-4.0 Molar) was 85%, the activity at 10 µM ([5]; 10^-5.0 Molar) was 99% and the activity at 1 µM ([5]; 10^-6.0 Molar) was 100%. For the same compound, the activity at 0.1 µM ([5]; 10^-7.0 Molar) was 110%, the activity ([6]; 10^-3.0 Molar) was -100% and the activity at 100 µM ([6]; 10^-4.0 Molar) was 93%. For the same compound, the activity at 10 µM ([6]; 10^-5.0 Molar) was 96%, the activity at 1 µM ([6]; 10^-6.0 Molar) was 99% and the activity at 0.1 µM ([6]; 10^-7.0 Molar) was 98%. The activity ([7]; 10^-3.0 Molar) was -100%, the activity at 100 µM ([7]; 10^-4.0 Molar) was 48% and the activity at 10 µM ([7]; 10^-5.0 Molar) was 118%. For the same compound, the activity at 1 µM ([7]; 10^-6.0 Molar) was 111%, the activity at 0.1 µM ([7]; 10^-7.0 Molar) was 109% and the activity ([8]; 10^-3.0 Molar) was -95%. It also gave an activity at 100 µM ([8]; 10^-4.0 Molar) of 47%, an activity at 10 µM ([8]; 10^-5.0 Molar) of 100% and an activity at 1 µM ([8]; 10^-6.0 Molar) of 100%. For the same compound, the activity at 0.1 µM ([8]; 10^-7.0 Molar) was 104%, the activity ([9]; 10^-3.0 Molar) was -70% and the activity at 100 µM ([9]; 10^-4.0 Molar) was 51%. For the same compound, the activity at 10 µM ([9]; 10^-5.0 Molar) was 104%, the activity at 1 µM ([9]; 10^-6.0 Molar) was 110% and the activity at 0.1 µM ([9]; 10^-7.0 Molar) was 104%. The activity ([10]; 10^-3.0 Molar) was -100%, the activity at 100 µM ([10]; 10^-4.0 Molar) was 72% and the activity at 10 µM ([10]; 10^-5.0 Molar) was 101%. The activity at 1 µM ([10]; 10^-6.0 Molar) was 104%, the activity at 0.1 µM ([10]; 10^-7.0 Molar) was 95% and the activity ([11]; 10^-3.0 Molar) was -81%. The activity at 100 µM ([11]; 10^-4.0 Molar) was 62%, the activity at 10 µM ([11]; 10^-5.0 Molar) was 96% and the activity at 1 µM ([11]; 10^-6.0 Molar) was 105%. For the same compound, the activity at 0.1 µM ([11]; 10^-7.0 Molar) was 99%, the activity ([12]; 10^-3.0 Molar) was -82% and the activity at 10 µM ([12]; 10^-5.0 Molar) was 109%. The activity at 0.1 µM ([12]; 10^-7.0 Molar) was 113%, the activity ([13]; 10^-3.0 Molar) was -75% and the activity at 100 µM ([13]; 10^-4.0 Molar) was 69%. It also gave an activity at 10 µM ([13]; 10^-5.0 Molar) of 108%, an activity at 1 µM ([13]; 10^-6.0 Molar) of 111% and an activity at 0.1 µM ([13]; 10^-7.0 Molar) of 110%. It also gave an activity ([14]; 10^-3.0 Molar) of -79%, an activity at 100 µM ([14]; 10^-4.0 Molar) of 53% and an activity at 10 µM ([14]; 10^-5.0 Molar) of 88%. It also gave an activity at 1 µM ([14]; 10^-6.0 Molar) of 91%, an activity at 0.1 µM ([14]; 10^-7.0 Molar) of 94% and an activity ([15]; 10^-3.0 Molar) of -54%. It also gave an activity at 100 µM ([15]; 10^-4.0 Molar) of 82%, an activity at 10 µM ([15]; 10^-5.0 Molar) of 97% and an activity at 1 µM ([15]; 10^-6.0 Molar) of 100%. It also gave an activity at 0.1 µM ([15]; 10^-7.0 Molar) of 99%, an activity ([16]; 10^-3.0 Molar) of -100% and an activity at 100 µM ([16]; 10^-4.0 Molar) of 87%. For the same compound, the activity at 10 µM ([16]; 10^-5.0 Molar) was 115%, the activity at 1 µM ([16]; 10^-6.0 Molar) was 82% and the activity ([17]; 10^-3.0 Molar) was -62%. The activity at 100 µM ([17]; 10^-4.0 Molar) was 63%, the activity at 10 µM ([17]; 10^-5.0 Molar) was 98% and the activity at 1 µM ([17]; 10^-6.0 Molar) was 103%. It also gave an activity at 0.1 µM ([17]; 10^-7.0 Molar) of 97%, an activity ([18]; 10^-3.0 Molar) of -58% and an activity at 100 µM ([18]; 10^-4.0 Molar) of 52%. The activity at 10 µM ([18]; 10^-5.0 Molar) was 93%, the activity at 1 µM ([18]; 10^-6.0 Molar) was 100% and the activity at 0.1 µM ([18]; 10^-7.0 Molar) was 98%.
